From PubChem BioAssay (NCI) come the findings set out here.

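Five compound concentrations were applied to cells in 96-well plates for 48 hours; endpoints were derived by simple linear interpolation of the resulting dose-response curve. The concentration for 50% growth inhibition is given as GI50. The concentration for full growth arrest is given as TGI.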

Test in all cases: NCI anticancer screen, dose series, 48 h
Assay [1] deals with 786-0 renal.
The subject of assay [2] is BT-549 breast.
The test system of assay [3] is COLO 205 colon.
The subject of assay [4] is DU-145 prostate.
In assay [5] the test system is MDA-MB-231 breast.
For assay [6], the system named is NCI-H460 lung.
Assay [7] deals with RPMI-8226 leukemia.
Assay [8] concerns RXF 393 renal.
The subject of assay [9] is SK-OV-3 ovarian.
Assay [10] relates to U251 CNS.
For assay [11], the system named is HCC-2998 colon.

In the case of `COC(=O)/C=C(\C(=O)OC)C1C(=O)Oc2c(C)c(=O)c3ccccc3n21` (stereo not drawn), the TGI in [1], in [2], in assay [3], in assay [4], in assay [5] and in assay [6] was over 100 µM in each case. For the same molecule, the TGI in [7], in assay [8], in [9] and in assay [10] was over 100 µM in each case.
Turning to `CCCCCCNc1n[nH]c(=O)c2c1nnn2Cc1ccccc1`, the TGI in assay [1], in [2], in assay [3], in assay [4], in assay [11] and in assay [5] was over 100 µM each time. Also, the TGI in assay [6], in assay [7] and in assay [10] was over 100 µM throughout.
On to `N#Cc1n[nH]n(-c2ccc(Br)cc2)c1=O`, for which the TGI in [1], in assay [2], in assay [3], in assay [4], in assay [11] and in [5] was over 100 µM each time. The TGI in assay [7], in assay [8], in [9] and in assay [10] was over 100 µM throughout.
For `O=C(O)C(O)C(O)C(O)C(O)c1nc2ccccc2s1` (stereo not drawn), the TGI is 30.4 µM in assay [1]; 63.2 µM in [2]; over 100 µM in [3]; 31.2 µM in [4]; 31.9 µM in assay [5]; 31.6 µM in assay [6]. The TGI came to 68.8 µM in assay [7], 32.6 µM in [8], 34.4 µM in assay [9] and 29.5 µM in [10].
As to `O=P(O)(O)CCP(=O)(O)O`, the TGI in [1], in assay [2], in assay [3], in assay [4], in [5] and in assay [6] was over 100 µM each time. For the same molecule, the TGI in assay [7], in [8], in assay [9] and in assay [10] was over 100 µM in each case.
For `C[n+]1c2ccc(Cl)cc2nc2cc(-c3ccccc3)ccc21`, the TGI in assay [1] was over 100 µM; in assay [2] it was 25.5 µM; in [3] it was 16 µM; in assay [4] it was 50.8 µM; in assay [11] it was 31.7 µM; in assay [5] it was 44 µM. The TGI in assay [6] was 67.3 µM; in assay [8] it was 55.2 µM; in assay [10], over 100 µM.
As for `CO/N=C(\C)c1ccc(Nc2nc3ccccc3c3occc23)cc1`, the TGI came out at 27.2 µM in assay [1]; 31 µM in assay [2]; 28.1 µM in assay [3]; 29.7 µM in assay [4]; 30.4 µM in [11]; 25.9 µM in [5]. The TGI stood at 34.1 µM in assay [6], 43.4 µM in assay [7], 29.5 µM in [9] and 35.6 µM in assay [10].
`N#CC1C(=S)NC(c2ccccc2)=CC12CCCCC2` (stereo not drawn): the TGI was over 100 µM in assay [1]; 35.7 µM in assay [2]; over 100 µM in assay [3]; 61.5 µM in assay [4]; over 100 µM in assay [11]; over 100 µM in [5]. Further, the TGI in [6] is over 100 µM; in assay [7] it was 54.3 µM; in [8] it was over 100 µM; in [10], over 100 µM.
On to `O=c1[nH]nnc2c1sc1ncccc12`, for which the TGI in assay [1], in [2], in assay [3], in assay [4], in assay [11] and in assay [5] was over 100 µM each time. Moreover, the TGI in [6], in assay [8], in assay [9] and in assay [10] was over 100 µM throughout.
For `C=CCCON(C(=O)OC(C)(C)C)C(C)(C)C`, the TGI in assay [1], in [2], in assay [3], in assay [4], in assay [5] and in [6] was over 100 µM in each case. Also, the TGI in assay [7], in assay [8], in assay [9] and in assay [10] was over 100 µM each time.
Consider `O=C1c2ccccc2C(=O)c2c(NCC(O)CO)ccc(NCC(O)CO)c21` (stereo not drawn), for which the TGI in assay [1], in assay [2], in [3], in assay [4], in assay [11] and in [5] was over 100 µM each time. Further, the TGI in assay [6], in [7], in [9] and in assay [10] was over 100 µM in each case.
Regarding `CN(CCSCCN(C)C(=O)OC(C)(C)C)C(=O)OC(C)(C)C`, the TGI in assay [1], in assay [2], in assay [3], in [4], in assay [11] and in [5] was over 100 µM each time. Also, the TGI in assay [6], in [9] and in assay [10] was over 100 µM throughout.
In the case of `Cc1ccc(-n2cnc(C(=N)C#N)c2N)cc1`, the TGI in assay [1], in assay [2], in [3], in [4], in [11] and in assay [5] was over 100 µM throughout. Besides, the TGI in [6], in [7], in [9] and in assay [10] was over 100 µM each time.
Consider `Cc1ccnc2[nH]c(-c3ccc4ccccc4c3)cc(=O)c12`, for which the TGI in assay [1] stood at 5.97 µM; in [2], 31.8 µM; in assay [3] it was 13.3 µM; in assay [4], 35.1 µM; in [11], 19.4 µM; in [5], 8.58 µM. The TGI in [6] was 7.34 µM; in [7] it was 8.05 µM; in [9], 5.32 µM; in assay [10], 10.4 µM. The GI50 in assay [6] is 1.05 µM; in assay [10], 0.644 µM.
`CC1=NN(c2nc(N)nc(/C(C#N)=C\c3ccc([N+](=O)[O-])s3)n2)C(C)(C)C1`: the TGI turned out to be 0.289 µM in [1]; 2.44 µM in [2]; 1.61 µM in [3]; 0.597 µM in assay [4]; 4.4 µM in [11]; 0.465 µM in [5]. Also, the TGI in assay [6] is 0.553 µM; in assay [7], 0.0872 µM; in assay [9] it was 49.3 µM; in assay [10], 0.221 µM.
For the molecule `O=C(N/N=C(\c1ccccc1)c1ccccn1)NC1CCCCC1`, the TGI in [1], in assay [2], in [3], in [4], in [11] and in assay [5] was over 100 µM throughout. The TGI in [6], in assay [7], in assay [9] and in assay [10] was over 100 µM each time.
Take `CC(=O)Nc1sc(Br)cc1S(=O)(=O)c1ccc(Cl)cc1`: the TGI in [1] is 92.3 µM; in assay [2], 74.8 µM; in assay [4], over 100 µM; in assay [11], 44.2 µM; in assay [5] it was over 100 µM; in assay [6], over 100 µM. The TGI in assay [7] is over 100 µM; in assay [8], 48.4 µM; in [9], over 100 µM; in assay [10], over 100 µM.
Consider `COc1cccc(CCNC(=O)Cc2ccccc2CCO)c1`, for which the TGI in [1], in [2], in [3], in assay [4], in assay [11] and in [5] was over 100 µM in each case. Besides, the TGI in assay [6], in assay [8], in assay [9] and in assay [10] was over 100 µM in each case.
Turning to `O=c1oc2ccccc2cc1-c1cc2ccccn2c1`, the TGI in [1], in assay [2], in assay [3], in [4], in assay [5] and in assay [6] was over 100 µM each time. Further, the TGI in [7], in assay [8], in assay [9] and in assay [10] was over 100 µM each time.
Turning to `CCOC(=O)NC(Nc1ccc(C)cc1)(C(F)(F)F)C(F)(F)F`, the TGI in assay [1], in assay [2], in [3], in [4], in [11] and in assay [5] was over 100 µM in each case. The TGI in assay [6], in assay [7], in assay [9] and in assay [10] was over 100 µM in each case.
For the molecule `O=C1C2SC34c5c2c2ccccc2n5CCC3CCCN14` (stereo not drawn), the TGI in assay [1], in assay [2], in [3], in [4], in assay [5] and in assay [7] was over 100 µM in each case. Further, the TGI in assay [8], in [9] and in assay [10] was over 100 µM in each case.
